Data reported in patent US4015974A, “Amido phosphorothiolates” (priority 1972, dated 1977).
Values after ≈ are worked out from the molar mass of the structure shown.

What was measured:
Format in all cases: in vivo
[1] = tested on: diamond-back moth (Plutella maculipennis); assay: Field test, diamond-back moth on cabbage (Table 8); conditions: 3% dust, 5 kg./10 a., after 7 days, on 20 cabbages
From the text: (§1) A 3% dust of each compound of the present invention was applied, in a proportion of 5 kg./10 a., to the field of cabbage where a large number of tobacco cut worm and diamond-back moth were generated, After 7 days, 20 cabbages were pulled out and the number of insects thereon were checked.

[2] = tested on: tobacco cut worm (Spodoptera litura); assay: Field test, tobacco cut worm on cabbage (Table 8); conditions: 3% dust, 5 kg./10 a., after 7 days, on 20 cabbages
From the text: as §1

[3] = tested on: barnyard grass (Echinochloa crus-galli); assay: Water application, herbicidal effect on barnyard grass (Table 2); design: key: 0: not damaged; 5: completely killed; conditions: 25 days, score 0-5
Outline: (§2)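 Scores (0–5) taken 25 days post-treatment. Wettable-powder formulations were applied into standing water over paddy soil holding 3-leaf-stage transplanted rice, sown Echinochloa and naturally emerging monochoria, false pimpernel and toothcup.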

[4] = tested on: nematode; assay: Effect on nematode (Table 7); design: tested at 500 ppm; conditions: 500 p.p.m., 24 hours
Description: 0.5 ml. of a nematode-containing aqueous solution separated from food according to Baermann's method was placed in a test tube with ground stopper containing 0.5 ml. of an aqueous dilute solution of each emulsifiable concentrates of the present compounds. The concentration of the active ingredient in the mixture was adjusted to 500 p.p.m. After 24 hours, the death and alive were observed microscopically to calculate the mortality.

[5] = tested on: redroot pigweed (Amaranthus retroflexus); assay: Pre-emergence application, herbicidal effect on redroot pigweed (Table 1); design: key: 0: not damaged; 5: completely killed; conditions: 20 days after application, score 0-5
Outline: (§3)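 Scores run from 0 (undamaged) to 5 (fully killed), read 20 days post-treatment. Compounds were applied as water-diluted wettable powders to soil over freshly covered seeds in ~10 cm pots, with plants kept in a greenhouse.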

[6] = tested on: rice; assay: Water application, phytotoxicity on rice (Table 2); design: key: 0: no effect; 1: very slightly affected; 2: slightly affected; 3: moderately affected; 4: considerably affected; 5: completely killed; conditions: 25 days, score 0-5
Outline: as §2

[7] = tested on: carmine mite (Tetranychus telavius); assay: Lethal effect on carmine mite, leaf dipping (Table 3); conditions: foliar, 48 h
Outline: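 Kidney bean leaves (2-leaf stage) infested with adult mites dipped 1 min in aqueous wettable-powder solutions. Mortality counted microscopically after 48 h; LC50 derived from mortality.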

[8] = tested on: barnyard grass (Echinochloa crus-galli); assay: Pre-emergence application, herbicidal effect on barnyard grass (Table 1); design: key: 0: not damaged; 5: completely killed; conditions: 20 days after application, score 0-5
Outline: as §3

[9] = tested on: common lambsquarter (Chenopodium album); assay: Pre-emergence application, herbicidal effect on common lambsquarter (Table 1); design: key: 0: not damaged; 5: completely killed; conditions: 20 days after application, score 0-5
Outline: as §3

[10] = tested on: broad-leaved weeds, e.g., monochoria, false pimpernel and toothcup; assay: Water application, herbicidal effect on broad-leaved weeds (Table 2); design: key: 0: not damaged; 5: completely killed; conditions: 25 days, score 0-5
Outline: as §2

[11] = tested on: common purslane (Portulaca oleracea); assay: Pre-emergence application, herbicidal effect on common purslane (Table 1); design: key: 0: not damaged; 5: completely killed; conditions: 20 days after application, score 0-5
Outline: as §3

[12] = tested on: large crabgrass (Digitaria sanguinalis); assay: Pre-emergence application, herbicidal effect on large crabgrass (Table 1); design: key: 0: not damaged; 5: completely killed; conditions: 20 days after application, score 0-5
Outline: as §3

[13] = tested on: tobacco cut worm (Spondoptera litura); assay: Lethal effect on tobacco cut worm (Table 5); conditions: tobacco cutworm, larvae on chinese cabbage leaves, 48 h
Description: The present compounds of an emulsifiable concentrate type were applied to leaves of chinese cabbage in the form of an 1000 fold dilute solution. After air-drying, third to fourth instar larvae of tobacco cut worm were released and after 48 hours the death and alive were observed.

[14] = tested on: radish; assay: Pre-emergence application, herbicidal effect on radish (Table 1); design: key: 0: not damaged; 5: completely killed; conditions: 20 days after application, score 0-5
Outline: as §3

[15] = tested on: carmine mite (Tetranychus telarius); assay: Lethal effect on carmine mite, degree of damage on kidney beans (Table 4); design: key: -: damage is hardly increased.; +: damage is slightly increased.; ++: damage is fairly increased.; +++: damage is heavily increased; conditions: 25% wettable powder, 200 fold dilute solution, another week after application
From the text: About 50 carmine mite adults were made parasitic on leaves of potted kidney beans at a 2-leaves stage which had elapsed 10 days after swing. After a week, the present compounds of a 25% wettable powder type were each applied in the form of a 200 fold dilute solution.

In the case of COP(=O)(OC)C(O)C(Cl)(Cl)Cl (centres unmarked) [Bipterex, reference compound], the “Number of insects, diamond-back moth” value [1] is reported as 49 and the “Number of insects, tobacco cut worm” value [2] is reported as 19.

For CCCSP(=O)(OCC)SCC(=O)N1CCCCC1C (centres unmarked) [Compound 2, O-ethyl-S-n-propyl-S(2-methylpiperidinocarbomoylmethyl)phosphorodithiolate], the “Number of insects, diamond-back moth” value [1] was 8, the “Herbicidal effects, barnyard grass” value ([3]; 10 g/a) was 5 and the “Herbicidal effects, barnyard grass” value ([3]; 20 g/a) was 5. The “Herbicidal effects, barnyard grass” value ([3]; 40 g/a) was 5, the Mortality [4] was 100% and the “Herbicidal effect, redroot pigweed” value ([5]; 10 g./a.) was 5. The “Herbicidal effect, redroot pigweed” value ([5]; 20 g./a.) was 5, the “Herbicidal effect, redroot pigweed” value ([5]; 40 g./a.) was 5 and the “Number of insects, tobacco cut worm” value [2] was 0. The Phytotoxicity on rice ([6]; 10 g/a) was 0, the Phytotoxicity on rice ([6]; 20 g/a) was 1 and the Phytotoxicity on rice ([6]; 40 g/a) was 1. For the same compound, the LC50 [7] was 4.6 µg/mL (≈ 13.6 µM), the “Herbicidal effect, barnyard grass” value ([8]; 10 g./a.) was 5 and the “Herbicidal effect, barnyard grass” value ([8]; 20 g./a.) was 5. For the same compound, the “Herbicidal effect, barnyard grass” value ([8]; 40 g./a.) was 5, the “Herbicidal effect, common lambsquarter” value ([9]; 10 g./a.) was 5 and the “Herbicidal effect, common lambsquarter” value ([9]; 20 g./a.) was 5. The “Herbicidal effect, common lambsquarter” value ([9]; 40 g./a.) was 5, the “Herbicidal effects, broad-leaved weeds” value ([10]; 10 g/a) was 5 and the “Herbicidal effects, broad-leaved weeds” value ([10]; 20 g/a) was 5. The “Herbicidal effects, broad-leaved weeds” value ([10]; 40 g/a) was 5, the “Herbicidal effect, common purslane” value ([11]; 10 g./a.) was 5 and the “Herbicidal effect, common purslane” value ([11]; 20 g./a.) was 5. For the same compound, the “Herbicidal effect, common purslane” value ([11]; 40 g./a.) was 5, the “Herbicidal effect, large crabgrass” value ([12]; 10 g./a.) was 5 and the “Herbicidal effect, large crabgrass” value ([12]; 20 g./a.) was 5. The “Herbicidal effect, large crabgrass” value ([12]; 40 g./a.) was 5, the Mortality [13] was 100% and the “Herbicidal effect, radish” value ([14]; 10 g./a.) was 0. For the same compound, the “Herbicidal effect, radish” value ([14]; 20 g./a.) was 0 and the “Herbicidal effect, radish” value ([14]; 40 g./a.) was 1.

For CCOP(=O)(SCC(=O)N1CCCCC1C)SC(C)C (centres unmarked) [Compound 3], the “Number of insects, diamond-back moth” value [1] was 12, the “Herbicidal effects, barnyard grass” value ([3]; 10 g/a) was 5 and the “Herbicidal effects, barnyard grass” value ([3]; 20 g/a) was 5. The “Herbicidal effects, barnyard grass” value ([3]; 40 g/a) was 5, the Mortality [4] was 100% and the “Herbicidal effect, redroot pigweed” value ([5]; 10 g./a.) was 4. For the same compound, the “Herbicidal effect, redroot pigweed” value ([5]; 20 g./a.) was 5, the “Herbicidal effect, redroot pigweed” value ([5]; 40 g./a.) was 5 and the “Number of insects, tobacco cut worm” value [2] was 1. The Phytotoxicity on rice ([6]; 10 g/a) was 0, the Phytotoxicity on rice ([6]; 20 g/a) was 0 and the Phytotoxicity on rice ([6]; 40 g/a) was 0. For the same compound, the LC50 [7] was 18.5 µg/mL (≈ 54.5 µM), the “Herbicidal effect, barnyard grass” value ([8]; 10 g./a.) was 5 and the “Herbicidal effect, barnyard grass” value ([8]; 20 g./a.) was 5. The “Herbicidal effect, barnyard grass” value ([8]; 40 g./a.) was 5, the “Herbicidal effect, common lambsquarter” value ([9]; 10 g./a.) was 5 and the “Herbicidal effect, common lambsquarter” value ([9]; 20 g./a.) was 5. The “Herbicidal effect, common lambsquarter” value ([9]; 40 g./a.) was 5, the “Herbicidal effects, broad-leaved weeds” value ([10]; 10 g/a) was 5 and the “Herbicidal effects, broad-leaved weeds” value ([10]; 20 g/a) was 5. For the same compound, the “Herbicidal effects, broad-leaved weeds” value ([10]; 40 g/a) was 5, the “Herbicidal effect, common purslane” value ([11]; 10 g./a.) was 5 and the “Herbicidal effect, common purslane” value ([11]; 20 g./a.) was 5. The “Herbicidal effect, common purslane” value ([11]; 40 g./a.) was 5, the “Herbicidal effect, large crabgrass” value ([12]; 10 g./a.) was 5 and the “Herbicidal effect, large crabgrass” value ([12]; 20 g./a.) was 5. The “Herbicidal effect, large crabgrass” value ([12]; 40 g./a.) was 5, the Mortality [13] was 83.3% and the “Herbicidal effect, radish” value ([14]; 10 g./a.) was 0. For the same compound, the “Herbicidal effect, radish” value ([14]; 20 g./a.) was 0 and the “Herbicidal effect, radish” value ([14]; 40 g./a.) was 0.

In the case of CCOP(=O)(SCC(=O)N1CCCCC1C)SCc1ccc(Cl)cc1 (stereo not drawn) [Compound 49, O-ethyl-S-(4-chlorobenzyl)-S-(2-methylpiperidinocarbamoylmethyl)phosphorodithiolate], the “Herbicidal effects, barnyard grass” value ([3]; 10 g/a) is reported as 5, the “Herbicidal effects, barnyard grass” value ([3]; 20 g/a) is reported as 5 and the “Herbicidal effects, barnyard grass” value ([3]; 40 g/a) is reported as 5. For the same compound, the Mortality [4] was 100%, the “Herbicidal effect, redroot pigweed” value ([5]; 10 g./a.) was 3 and the “Herbicidal effect, redroot pigweed” value ([5]; 20 g./a.) was 4. For the same compound, the “Herbicidal effect, redroot pigweed” value ([5]; 40 g./a.) was 5, the Phytotoxicity on rice ([6]; 10 g/a) was 0 and the Phytotoxicity on rice ([6]; 20 g/a) was 0. For the same compound, the Phytotoxicity on rice ([6]; 40 g/a) was 1, the “Herbicidal effect, barnyard grass” value ([8]; 10 g./a.) was 5 and the “Herbicidal effect, barnyard grass” value ([8]; 20 g./a.) was 5. For the same compound, the “Herbicidal effect, barnyard grass” value ([8]; 40 g./a.) was 5, the “Herbicidal effect, common lambsquarter” value ([9]; 10 g./a.) was 4 and the “Herbicidal effect, common lambsquarter” value ([9]; 20 g./a.) was 4. For the same compound, the “Herbicidal effect, common lambsquarter” value ([9]; 40 g./a.) was 5, the “Herbicidal effects, broad-leaved weeds” value ([10]; 10 g/a) was 5 and the “Herbicidal effects, broad-leaved weeds” value ([10]; 20 g/a) was 5. For the same compound, the “Herbicidal effects, broad-leaved weeds” value ([10]; 40 g/a) was 5, the “Herbicidal effect, common purslane” value ([11]; 10 g./a.) was 3 and the “Herbicidal effect, common purslane” value ([11]; 20 g./a.) was 4. For the same compound, the “Herbicidal effect, common purslane” value ([11]; 40 g./a.) was 5, the Degree of damage [15] was “-” and the “Herbicidal effect, large crabgrass” value ([12]; 10 g./a.) was 5. For the same compound, the “Herbicidal effect, large crabgrass” value ([12]; 20 g./a.) was 5, the “Herbicidal effect, large crabgrass” value ([12]; 40 g./a.) was 5 and the Mortality [13] was 75.0%. The “Herbicidal effect, radish” value ([14]; 10 g./a.) was 0, the “Herbicidal effect, radish” value ([14]; 20 g./a.) was 0 and the “Herbicidal effect, radish” value ([14]; 40 g./a.) was 0.

In the case of CCOP(=O)(SCC(=O)N1CCCCC1C)SCc1ccc(CC)cc1 (centres unmarked) [Compound 53], the “Herbicidal effects, barnyard grass” value ([3]; 10 g/a) is reported as 5, the “Herbicidal effects, barnyard grass” value ([3]; 20 g/a) is reported as 5 and the “Herbicidal effects, barnyard grass” value ([3]; 40 g/a) is reported as 5. The Mortality [4] was 83.6%, the “Herbicidal effect, redroot pigweed” value ([5]; 10 g./a.) was 3 and the “Herbicidal effect, redroot pigweed” value ([5]; 20 g./a.) was 4. The “Herbicidal effect, redroot pigweed” value ([5]; 40 g./a.) was 5, the Phytotoxicity on rice ([6]; 10 g/a) was 0 and the Phytotoxicity on rice ([6]; 20 g/a) was 0. The Phytotoxicity on rice ([6]; 40 g/a) was 0, the “Herbicidal effect, barnyard grass” value ([8]; 10 g./a.) was 4 and the “Herbicidal effect, barnyard grass” value ([8]; 20 g./a.) was 5. The “Herbicidal effect, barnyard grass” value ([8]; 40 g./a.) was 5, the “Herbicidal effect, common lambsquarter” value ([9]; 10 g./a.) was 3 and the “Herbicidal effect, common lambsquarter” value ([9]; 20 g./a.) was 3. For the same compound, the “Herbicidal effect, common lambsquarter” value ([9]; 40 g./a.) was 4, the “Herbicidal effects, broad-leaved weeds” value ([10]; 10 g/a) was 5 and the “Herbicidal effects, broad-leaved weeds” value ([10]; 20 g/a) was 5. For the same compound, the “Herbicidal effects, broad-leaved weeds” value ([10]; 40 g/a) was 5, the “Herbicidal effect, common purslane” value ([11]; 10 g./a.) was 3 and the “Herbicidal effect, common purslane” value ([11]; 20 g./a.) was 3. The “Herbicidal effect, common purslane” value ([11]; 40 g./a.) was 5, the Degree of damage [15] was “-~+” and the “Herbicidal effect, large crabgrass” value ([12]; 10 g./a.) was 5. The “Herbicidal effect, large crabgrass” value ([12]; 20 g./a.) was 5, the “Herbicidal effect, large crabgrass” value ([12]; 40 g./a.) was 5 and the “Herbicidal effect, radish” value ([14]; 10 g./a.) was 0. For the same compound, the “Herbicidal effect, radish” value ([14]; 20 g./a.) was 0 and the “Herbicidal effect, radish” value ([14]; 40 g./a.) was 0.
